Experimental data as given in patent US9132138B2, “Method for the treatment of multiple sclerosis” (CASI Pharmaceuticals, Inc., priority 2012, dated 2015).

Target: T1, GPER1 (Mus musculus, UniProt Q8BMP4)
T1 construct: Purified C57/BL6 CD4^+ T cells were preincubated with the GPER1 antagonist G15; endogenous in cells; host or cells: purified primary CD4+ T cells from C57/BL6 mice
T1 sequence (Q8BMP4 1-375): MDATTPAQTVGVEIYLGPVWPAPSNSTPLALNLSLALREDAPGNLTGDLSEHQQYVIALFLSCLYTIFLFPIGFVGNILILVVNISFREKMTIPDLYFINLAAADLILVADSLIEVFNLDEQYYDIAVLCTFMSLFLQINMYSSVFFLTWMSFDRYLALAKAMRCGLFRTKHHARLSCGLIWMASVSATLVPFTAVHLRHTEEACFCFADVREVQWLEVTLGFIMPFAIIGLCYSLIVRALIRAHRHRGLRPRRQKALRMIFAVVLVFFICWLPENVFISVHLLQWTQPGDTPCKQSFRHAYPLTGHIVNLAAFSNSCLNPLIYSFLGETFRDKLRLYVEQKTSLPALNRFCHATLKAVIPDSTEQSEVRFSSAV
Experiment: GPER1 dependence: CD25/CD69 on CD4+ T cells with G15 or G1
Type: cell-based, C57/BL6 mice
Details: for cell viability: at 6 hours
Method: FIGS. 6A and 6B show purified CD4^+ T cells that were pretreated with 2-50 μM 2ME2 and/or the GPER1 antagonist G15, and subsequently stimulated with anti-CD3/28 for 6 hours. Activation of CD4^+ T cells was assessed by CD25 and CD69 upregulation, measured by flow cytometry. US, unstimulated. Data is shown as mean±SD for triplicate determinations, and is representative of two separate experiments.
Purified C57/BL6 CD4^+ T cells were preincubated with the GPER1 antagonist G15 (100 nM, Tocris) and 2ME2 (0-50 μM), or the GPER1 agonist G1 (1-100 nM, Tocris) for 30 minutes, and activated with plate bound anti-CD3 plus soluble anti-CD28. 6 hours later, cells were harvested, stained with anti-CD4 and anti-CD25. CD25 expression was monitored on a HTS FACSCanto II (BD) and analyzed with FloJo (Treestar Inc).

[1] = G15 100 nM with 2ME2, anti-CD3/28, 6 hours

SMILES | CD25 expression on activated T cells (G1 1-100 nM, 6 hours) | CD69 expression on activated T cells (G1 1-100 nM, 6 hours) | cell viability | reversal of the inhibitory effect of 2ME2 on CD25 expression [1] | reversal of the inhibitory effect of 2ME2 on CD69 expression [1]
CC(=O)c1ccc2c(c1)C1C=CCC1C(c1cc3c(cc1Br)OCO3)N2 (stereo not drawn) [G1] | no effect | no effect | Neither 2ME2, G1 nor G15 affected cell viability |  | 
Brc1cc2c(cc1[C@@H]1Nc3ccccc3[C@@H]3C=CC[C@@H]31)OCO2 [G15] |  |  | Neither 2ME2, G1 nor G15 affected cell viability | failed to reverse | failed to reverse
